According to ChEMBL document CHEMBL1201862, “PubChem BioAssay data set” (2004):
Calls of active or inactive are those of the source. No stated cut-off is given here; in the data, actives have a measured IC50 and inactives only a lower limit.

Key:
Type in all cases: functional
[1] = biological target: T1, Sentrin-specific protease 6 (Homo sapiens, UniProt Q9GZR1); assay: inhibition of human SENP6 catalytic domain – biochemical, luminescence, set 2, SAR follow-up (AID 588598)
T1 sequence (Q9GZR1 whole entry): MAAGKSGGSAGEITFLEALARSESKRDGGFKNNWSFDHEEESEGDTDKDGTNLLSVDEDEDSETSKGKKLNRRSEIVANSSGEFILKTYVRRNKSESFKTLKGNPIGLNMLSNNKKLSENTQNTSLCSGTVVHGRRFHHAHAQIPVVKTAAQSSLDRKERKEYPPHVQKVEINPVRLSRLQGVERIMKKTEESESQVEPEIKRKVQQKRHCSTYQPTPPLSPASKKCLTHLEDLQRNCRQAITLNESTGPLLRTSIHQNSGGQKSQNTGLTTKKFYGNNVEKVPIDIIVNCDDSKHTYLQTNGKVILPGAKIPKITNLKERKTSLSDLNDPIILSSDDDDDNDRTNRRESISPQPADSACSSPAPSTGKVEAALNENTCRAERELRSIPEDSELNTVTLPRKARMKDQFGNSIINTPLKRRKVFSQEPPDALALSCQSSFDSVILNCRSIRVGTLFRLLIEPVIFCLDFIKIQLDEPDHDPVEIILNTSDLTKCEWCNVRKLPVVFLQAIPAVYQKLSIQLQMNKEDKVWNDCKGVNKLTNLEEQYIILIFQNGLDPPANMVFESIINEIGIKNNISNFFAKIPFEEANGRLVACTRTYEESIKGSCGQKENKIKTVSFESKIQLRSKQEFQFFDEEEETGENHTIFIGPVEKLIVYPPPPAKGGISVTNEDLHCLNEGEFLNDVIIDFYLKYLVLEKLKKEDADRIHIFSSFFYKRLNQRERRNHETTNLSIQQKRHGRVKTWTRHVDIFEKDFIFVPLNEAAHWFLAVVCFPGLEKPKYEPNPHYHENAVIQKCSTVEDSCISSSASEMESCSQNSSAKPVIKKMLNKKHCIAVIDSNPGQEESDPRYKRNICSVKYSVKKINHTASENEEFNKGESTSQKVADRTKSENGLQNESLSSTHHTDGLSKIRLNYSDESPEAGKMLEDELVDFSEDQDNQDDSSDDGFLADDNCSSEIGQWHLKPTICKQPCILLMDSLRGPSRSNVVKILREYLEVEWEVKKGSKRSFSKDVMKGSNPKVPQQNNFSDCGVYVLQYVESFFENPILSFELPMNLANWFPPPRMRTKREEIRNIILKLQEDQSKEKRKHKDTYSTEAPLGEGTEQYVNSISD

Caspase-3 = biological target: T2, Caspase-3 (Homo sapiens, UniProt P42574); assay: inhibition of recombinant caspase-3 activity – biochemical, luminescence, set 2, selectivity assay for SENP protease inhibitor project, SAR follow-up (AID 588599)
T2 sequence (P42574 whole entry): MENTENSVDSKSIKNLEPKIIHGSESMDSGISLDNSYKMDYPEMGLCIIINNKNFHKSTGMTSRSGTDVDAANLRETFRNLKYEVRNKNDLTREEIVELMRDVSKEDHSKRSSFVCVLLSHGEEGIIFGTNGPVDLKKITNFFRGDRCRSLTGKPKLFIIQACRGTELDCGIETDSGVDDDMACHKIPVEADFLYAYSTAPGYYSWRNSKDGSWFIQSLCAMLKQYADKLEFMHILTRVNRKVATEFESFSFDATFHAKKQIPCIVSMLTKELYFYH

[2] = biological target: T3, Sentrin-specific protease 8 (Homo sapiens, UniProt Q96LD8); assay: inhibition of sentrin protease 8 – biochemical, luminescence, set 2, SAR follow-up (AID 588601)
T3 sequence (Q96LD8 whole entry): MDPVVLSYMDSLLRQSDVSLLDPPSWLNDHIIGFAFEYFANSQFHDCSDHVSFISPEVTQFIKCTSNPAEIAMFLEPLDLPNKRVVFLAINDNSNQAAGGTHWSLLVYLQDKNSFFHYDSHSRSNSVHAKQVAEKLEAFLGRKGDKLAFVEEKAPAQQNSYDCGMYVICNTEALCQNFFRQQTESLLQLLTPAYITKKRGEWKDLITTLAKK

[3] = biological target: T4, Sentrin-specific protease 7 (Homo sapiens, UniProt Q9BQF6); assay: inhibition of human SENP7 cleavage activity – biochemical, luminescence, set 2, SAR follow-up (AID 588600)
T4 sequence (Q9BQF6 whole entry): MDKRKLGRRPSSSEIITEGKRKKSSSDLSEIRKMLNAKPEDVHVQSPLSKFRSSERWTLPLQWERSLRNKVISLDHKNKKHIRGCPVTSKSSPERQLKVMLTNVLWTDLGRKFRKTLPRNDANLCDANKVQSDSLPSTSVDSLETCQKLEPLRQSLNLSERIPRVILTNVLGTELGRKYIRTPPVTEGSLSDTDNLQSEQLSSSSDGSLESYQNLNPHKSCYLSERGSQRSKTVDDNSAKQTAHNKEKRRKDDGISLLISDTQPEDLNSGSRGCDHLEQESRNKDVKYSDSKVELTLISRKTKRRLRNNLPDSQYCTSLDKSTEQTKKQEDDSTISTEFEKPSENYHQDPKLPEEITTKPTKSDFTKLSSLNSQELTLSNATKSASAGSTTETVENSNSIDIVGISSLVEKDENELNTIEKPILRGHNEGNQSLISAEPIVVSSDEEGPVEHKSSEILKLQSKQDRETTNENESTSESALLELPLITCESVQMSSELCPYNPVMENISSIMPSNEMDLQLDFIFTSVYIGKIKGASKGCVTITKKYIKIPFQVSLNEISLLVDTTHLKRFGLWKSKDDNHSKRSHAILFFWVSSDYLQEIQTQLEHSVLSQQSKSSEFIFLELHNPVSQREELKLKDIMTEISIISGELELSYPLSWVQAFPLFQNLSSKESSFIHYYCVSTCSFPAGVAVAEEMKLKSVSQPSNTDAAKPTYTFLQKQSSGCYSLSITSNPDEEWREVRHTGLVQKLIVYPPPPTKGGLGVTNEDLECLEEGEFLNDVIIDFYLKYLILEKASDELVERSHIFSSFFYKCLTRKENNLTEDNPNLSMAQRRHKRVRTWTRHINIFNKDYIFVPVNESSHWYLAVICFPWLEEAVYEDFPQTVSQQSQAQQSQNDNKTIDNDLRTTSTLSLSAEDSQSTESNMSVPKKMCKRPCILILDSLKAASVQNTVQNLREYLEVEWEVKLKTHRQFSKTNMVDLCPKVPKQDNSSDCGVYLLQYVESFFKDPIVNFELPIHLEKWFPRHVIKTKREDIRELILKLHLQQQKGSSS

Measured: IC50

CCCN(CCC)S(=O)(=O)c1ccc2[nH]cc(/C=N/NC(=S)Nc3ccc(F)c(Cl)c3)c2c1
inactive: [1] > 99 µM | Caspase-3 > 99 µM | [2] > 99 µM | [3] > 99 µM
